Consider five compounds from ChEMBL document CHEMBL1125933, “Arocalciferols: synthesis and biological evaluation of aromatic side-chain analogues of 1 alpha,25-dihydroxyvitamin D3(1a)” (1991).

For test [1], the species on record is Homo sapiens. The test can be described thus: 25-hydroxyvitamin D3-1-hydroxylase activity (10e-6 M) was measured as %control.
Test [2] is filed under the species Homo sapiens. The test can be described thus: Inhibitory effect (10e-6 M) on the 25-hydroxyvitamin D3-1-hydroxylase activity.
The species entered for test [3] is Homo sapiens. The experiment in a line: Inhibitory effect (10e-6 M) on the 25-OH-D3-1-hydroxylase activity. Type of test: functional.
For test [4], the species on record is Homo sapiens. The experiment in a line: 25-OH-D3-1-hydroxylase activity (10e-6 M) was measured as %control. Type of test: functional.
Test [5] deals with Vitamin D3 receptor (Gallus gallus). The test can be described thus: Relative competitive index values for binding to 1,25(OH)2D3 receptor of chick intestine.
Test [6] addresses Vitamin D3 receptor (Homo sapiens) (UniProt P11473). The test can be described thus: Relative competitive index values for binding to 1,25(OH)2D3 receptor of human HL-60 cells.
The subject of test [7] is Gallus gallus. The experiment in a line: Effect on bone calcium mobilization was measured in vivo, in the vitamin D deficient chick. Type of test: functional, Bone element. The arrangement: reference not given here.
Test [8] relates to Gallus gallus. The test can be described thus: Effect on intestinal calcium absorption was measured in vivo, in the vitamin D deficient chick. Type of test: functional. The arrangement: reference not given here.
For test [9], the target named is T1, Vitamin D-binding protein (Homo sapiens) (UniProt P02774).
T1 sequence (whole entry): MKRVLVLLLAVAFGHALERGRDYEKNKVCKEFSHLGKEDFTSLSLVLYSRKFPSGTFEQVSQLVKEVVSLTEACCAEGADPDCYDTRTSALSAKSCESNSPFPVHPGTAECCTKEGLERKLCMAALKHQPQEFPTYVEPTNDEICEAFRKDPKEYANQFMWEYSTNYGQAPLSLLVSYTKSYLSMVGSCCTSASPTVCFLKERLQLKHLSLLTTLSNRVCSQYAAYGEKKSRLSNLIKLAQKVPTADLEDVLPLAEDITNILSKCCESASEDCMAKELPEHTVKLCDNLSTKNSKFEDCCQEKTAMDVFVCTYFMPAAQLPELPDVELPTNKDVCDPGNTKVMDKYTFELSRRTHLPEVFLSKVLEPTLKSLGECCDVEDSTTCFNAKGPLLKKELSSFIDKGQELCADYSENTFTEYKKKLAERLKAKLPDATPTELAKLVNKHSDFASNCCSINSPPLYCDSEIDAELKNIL
The experiment in a line: Relative competitive index for binding to vitamin D binding protein.

Test [10] has as its target Vitamin D3 receptor (Homo sapiens) (UniProt P11473). The test can be described thus: Relative competitive index values for binding to 1,25(OH)2D3 receptor of human HL-60 cells. This is another data set of the same source.

On to `C=C1/C(=C\C=C2/CCC[C@]3(C)[C@@H]([C@H](C)CCCC(C)(C)O)CC[C@@H]23)C[C@@H](O)C[C@@H]1O`, for which the Control in [1] is 12%. The Activity in test [2] is 2.1 pmol/10 min.
Regarding `C=C1/C(=C\C=C2/CCC[C@]3(C)[C@@H]([C@H](C)Cc4ccc(O)cc4)CC[C@@H]23)C[C@@H](O)C[C@@H]1O`, the Activity in test [3] came to 18.1 pmol/10 min. For the same compound, the Control in test [4] worked out at 104%. The RCI in test [5] is 5; in test [6] it was 12; in test [9] it was 1980. The Ratio in test [7] was found to be 0.08; in test [8], 0.04.
`C=C1/C(=C\C=C2/CCC[C@]3(C)[C@@H]([C@H](C)Cc4cccc(C)c4)CC[C@@H]23)C[C@@H](O)C[C@@H]1O`: the Control in test [1] amounted to 96%. The results for the RCI in [5] and in test [10] were 1.4 and 3.5, respectively. This compound returned an Activity in [2] of 16.7 pmol/10 min. Besides, the Ratio is 0.06 in test [7] and 0.31 in test [8].
In turn, `C=C1/C(=C\C=C2/CCC[C@]3(C)[C@@H]([C@H](C)Cc4cccc(C(C)(C)O)c4)CC[C@@H]23)C[C@@H](O)C[C@@H]1O` registered a Control in test [1] of 99%. The RCI in [5] worked out at 62; in test [9], 2; in [10], 32. In test [2], this compound registered an Activity of 17.2 pmol/10 min. In addition, the Ratio worked out at 7.7 in test [7] and 30.7 in test [8].
Regarding `C=C1/C(=C\C=C2/CCC[C@]3(C)[C@@H]([C@H](C)Cc4cccc(O)c4)CC[C@@H]23)C[C@@H](O)C[C@@H]1O`, in test [1], the Control amounted to 97%. Further, the RCI in [5] stood at 28; in test [9] it was 980; in test [10], 27. In addition, the Activity in [2] was determined as 16.9 pmol/10 min. Besides, the figures for the Ratio in test [7] and in test [8] were 1 and 0.28, respectively.
